These results are taken from ChEMBL document CHEMBL1201862, “PubChem BioAssay data set” (2004).

Each structure is given as a SMILES string.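 Values below derive from 48-hour exposures of cells grown in 96-well plates, with endpoints linearly interpolated between the two concentrations bracketing the appropriate inhibition level. GI50: concentration for 50% inhibition of growth.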 The source made the active and inactive calls. Rule as the data show it: active = GI50 up to about 1.1 µM and inactive = higher.

Among the test systems are NCI-H226; DMS-273; EKVX; SNB-19; SW-620; SNB-78; M14; M19-MEL; SN12C; SK-OV-3; Malme-3M; KM12; SK-MEL-2; OVCAR-8; A549; KM-20L2; T47D; MDA-MB-435; DU-145; Hs-578T.
Holding throughout (test): DTP human tumour cell line panel, 48 h

The GI50 is the concentration giving 50% growth inhibition. On to `Cn1c(=O)c2c(nc3n2C(CCl)CO3)n(C)c1=O` (stereo not given), for which the GI50 in the assay on NCI-H226, with DMS-273, with EKVX, in the assay on SNB-19, in the assay on SW-620 and in the assay with SNB-78 was > 100 µM (inactive) each time. In addition, the GI50 in the assay on M14, with M19-MEL, in the assay on SN12C, in the assay on SK-OV-3, in the assay on Malme-3M and with KM12 was > 100 µM (inactive) in each case. Further, the GI50 in the assay with SK-MEL-2 and in the assay with OVCAR-8 was > 100 µM (inactive) each time.
As to `C#Cc1ccccc1C(=O)OC`, the GI50 in the assay on NCI-H226, in the assay on DMS-273, with EKVX, in the assay on SNB-19, in the assay on SW-620 and with A549 was > 100 µM (inactive) each time. Further, the GI50 with M14, in the assay with SN12C, in the assay with KM-20L2, with SK-OV-3, in the assay on Malme-3M and in the assay on KM12 was > 100 µM (inactive) throughout. Further, the GI50 with SK-MEL-2 and with OVCAR-8 was > 100 µM (inactive) throughout.
With `O=[N+]([O-])c1ccc(/C=C/c2ccc(/N=N/c3ccc(/C=C/c4ccc([N+](=O)[O-])cc4S(=O)(=O)O)c(S(=O)(=O)O)c3)cc2S(=O)(=O)O)c(S(=O)(=O)O)c1`, the GI50 is > 100 µM (inactive) in the assay on NCI-H226; > 71 µM (inactive) with DMS-273; > 100 µM (inactive) in the assay on EKVX; > 100 µM (inactive) with SW-620; > 100 µM (inactive) with A549; > 83.6 µM (inactive) in the assay on SNB-78. Besides, the GI50 in the assay on M19-MEL, with SN12C, in the assay on SK-OV-3, in the assay on Malme-3M, in the assay on KM12 and in the assay on SK-MEL-2 was > 100 µM (inactive) throughout. The GI50 with OVCAR-8 was > 100 µM (inactive).
For the compound `CC(C)(C)c1ccc(OCCOCCOc2ccc(C(C)(C)C)cc2S(N)(=O)=O)c(S(N)(=O)=O)c1`, the GI50 was 40.7 µM (inactive) in the assay on NCI-H226; 72.6 µM (inactive) with DMS-273; > 100 µM (inactive) with EKVX; > 100 µM (inactive) in the assay with SNB-19; > 100 µM (inactive) with SW-620; 35.8 µM (inactive) in the assay with A549. In addition, the GI50 with SNB-78 was > 100 µM (inactive); in the assay with M14 it was 61.4 µM (inactive); with M19-MEL, > 100 µM (inactive); with SN12C, > 100 µM (inactive); in the assay with SK-OV-3 it was > 100 µM (inactive); with Malme-3M, 28.5 µM (inactive). Besides, the GI50 was 52.1 µM (inactive) in the assay on KM12, 67.8 µM (inactive) with SK-MEL-2 and > 100 µM (inactive) in the assay with OVCAR-8.
Consider `CC(=O)NC1C(OCc2ccccc2)OC(CO)C(O)C1OC(C)C(=O)N[C@@H](C)C(=O)N[C@H](CCC(=O)OCCNc1c2ccccc2nc2cccc([N+](=O)[O-])c12)C(N)=O` (stereo not given in full), for which the concentration for 50% growth inhibition (GI50) is 0.00548 µM (active) in the assay on NCI-H226; 0.0016 µM (active) in the assay on DMS-273; 0.00165 µM (active) in the assay on EKVX; 0.000187 µM (active) with SNB-19; 0.000191 µM (active) in the assay with SW-620; 0.00146 µM (active) in the assay with A549. In addition, the 50% growth inhibitory concentration (GI50) is 0.0252 µM (active) in the assay with SNB-78; 0.00109 µM (active) in the assay with M14; 0.00531 µM (active) in the assay on SN12C; 0.000175 µM (active) in the assay on KM-20L2; 0.00711 µM (active) in the assay on SK-OV-3; 0.00158 µM (active) in the assay with Malme-3M. In addition, the figures for the 50% growth inhibitory concentration (GI50) with KM12, in the assay with SK-MEL-2 and in the assay on OVCAR-8 were 0.00114 µM (active), 0.00211 µM (active) and 0.00235 µM (active), respectively.
`C/C(CC(=O)Nc1cc(Cl)c(Cl)cc1Cl)=N\NC(N)=O`: the GI50 in the assay on NCI-H226, in the assay on DMS-273, in the assay on EKVX, in the assay with SW-620, in the assay with A549 and with M14 was > 100 µM (inactive) in each case. Also, the GI50 in the assay with M19-MEL, in the assay on KM-20L2, with SK-OV-3, with Malme-3M, with KM12 and with SK-MEL-2 was > 100 µM (inactive) throughout. Also, the GI50 with OVCAR-8 is > 100 µM (inactive).
Turning to `CNC(=S)N(C)C(=S)Nn1c(=O)c(C)nn(C)c1=S`, the GI50 with NCI-H226, with DMS-273, in the assay on EKVX, with SNB-19, in the assay with SW-620 and in the assay on A549 was > 100 µM (inactive) in each case. For the same compound, the GI50 with SNB-78, in the assay on M14, in the assay on M19-MEL, in the assay with SN12C, in the assay on KM-20L2 and in the assay on KM12 was > 100 µM (inactive) each time. For the same compound, the GI50 in the assay on OVCAR-8 is > 100 µM (inactive).
As for `O=c1nc2n(c3nsnc13)CCO2`, the GI50 with NCI-H226, in the assay on DMS-273, in the assay with EKVX, with SNB-19, with SW-620 and in the assay with A549 was > 100 µM (inactive) throughout. Further, the GI50 in the assay with M14, in the assay on M19-MEL, with SN12C, in the assay with KM-20L2, in the assay with SK-OV-3 and in the assay with Malme-3M was > 100 µM (inactive) each time. In addition, the GI50 in the assay with KM12, with SK-MEL-2 and in the assay on OVCAR-8 was > 100 µM (inactive) in each case.
On to `[O-]c1c2c(nn1-c1ccc(F)cc1)c1ccccc1c[n+]2Cc1ccccc1`, for which the GI50 in the assay with NCI-H226 is 16.6 µM (inactive); with EKVX, 19.4 µM (inactive); in the assay with SNB-19, 30.8 µM (inactive); in the assay with SW-620 it was 14.8 µM (inactive); with A549 it was 12.8 µM (inactive); in the assay with SNB-78, 1.96 µM (inactive). The GI50 in the assay on M14 was 1.79 µM (inactive); in the assay on SN12C, 16.4 µM (inactive); with KM-20L2, 11.6 µM (inactive); in the assay with SK-OV-3, 14.6 µM (inactive); in the assay with Malme-3M it was 11.7 µM (inactive); with KM12, 1.43 µM (inactive). Besides, the GI50 with SK-MEL-2 was 0.501 µM (active); in the assay on OVCAR-8, 12.8 µM (inactive).
Regarding `Cc1ccc(NC(=O)SCCC(=O)O)cc1`, the GI50 with NCI-H226, in the assay on DMS-273, with EKVX, with SNB-19, in the assay on SW-620 and in the assay with A549 was > 100 µM (inactive) each time. The GI50 in the assay on SNB-78, in the assay with M14, with SN12C, with KM-20L2, in the assay with KM12 and with SK-MEL-2 was > 100 µM (inactive) in each case. The GI50 with OVCAR-8 was > 100 µM (inactive).
As to `O=C(Nc1ccccc1-c1n[nH]c(S)nc1=O)C(F)(F)F`, the GI50 in the assay with NCI-H226, in the assay on DMS-273, in the assay with EKVX, in the assay on SNB-19, in the assay with SW-620 and in the assay on A549 was > 100 µM (inactive) each time. The GI50 with SNB-78, with M14, with M19-MEL, in the assay on SN12C, in the assay with SK-OV-3 and in the assay with Malme-3M was > 100 µM (inactive) in each case. The GI50 in the assay on KM12, in the assay with SK-MEL-2 and in the assay on OVCAR-8 was > 100 µM (inactive) in each case.
As to `C=C(Br)CN(C#N)CC(=C)Br`, the GI50 in the assay with NCI-H226, with T47D, in the assay with EKVX, in the assay with SNB-19, in the assay on SW-620 and in the assay with A549 was > 100 µM (inactive) in each case. The GI50 in the assay on M14, in the assay with MDA-MB-435, with DU-145, in the assay with Hs-578T, with SN12C and with SK-OV-3 was > 100 µM (inactive) in each case. Further, the GI50 in the assay on Malme-3M, in the assay with KM12, in the assay on SK-MEL-2 and with OVCAR-8 was > 100 µM (inactive) throughout.
As to `CCOC(=O)NC(=O)c1cn(CCCCCCOC(=O)NCCCCCCNC(=O)OCCCCCCn2cc(C(=O)NC(=O)OCC)c(=O)[nH]c2=O)c(=O)[nH]c1=O`, the GI50 with NCI-H226, in the assay on DMS-273, with EKVX, in the assay with SNB-19, in the assay on SW-620 and with A549 was > 100 µM (inactive) in each case. For the same compound, the GI50 in the assay with M14, in the assay on M19-MEL, in the assay on SN12C, in the assay on KM-20L2, in the assay with SK-OV-3 and with Malme-3M was > 100 µM (inactive) each time. Also, the GI50 in the assay with KM12, in the assay on SK-MEL-2 and in the assay on OVCAR-8 was > 100 µM (inactive) each time.
